This is an account of results in patent US6737438B2, “Substituted 1,2,4-trioxanes useful as antimalarial agents and a process for the preparation thereof” (Council of Scientific and Industrial Research, priority 2002, dated 2004).

Like-named read-outs stand apart in the source and are kept apart here.

The subject of data set [1] is multidrug resistant strain of Plasmodium yoelii Nigeriensis. Description: Antimalarial activity against multidrug resistant P. yoelii in swiss mice. Type of data set: in vivo. The following applies: for % Suppression on Day 4 / inhibition in vivo at 96 mg/kg: 4 consecutive days (day 0-3), parasitaemia vs vehicle control; for Cured/treated: observed till day 28; for inhibition in vivo at 96 mg/kg / responders at 96 mg/kg: Plasmodium yoelii; for inhibition in vivo at 96 mg/kg: 96 h, read-out: % Suppression on Day 4; for responders at 96 mg/kg: 672 h, observed till day 28, read-out: Cured/treated (converted).

Turning to `C=C(c1ccc(-c2ccccc2)cc1)C1COC2(CC3CCC2C3)OO1` (centres unmarked) [Trioxane 8e], in data set [1] (i.m., 96 mg/kg), the “% Suppression on Day 4” value was 100% and the Cured/treated was 1/4. In addition, in data set [1] (oral, 96 mg/kg), the “% Suppression on Day 4” value is reported as 100% and the Cured/treated was 4/4.
Take `C=C(c1ccc(C2CCCC2)cc1)C1COC2(CC3CCC2C3)OO1` (centres unmarked) [Trioxane 8a]: in data set [1] (i.m., 96 mg/kg), the “% Suppression on Day 4” value is given as 81.23% and the Cured/treated is given as 0/5. In data set [1] (oral, 96 mg/kg), the “% Suppression on Day 4” value is 100% and the Cured/treated is reported as 5/5.
`C(=CC1COC(c2ccccc2)OO1)c1ccc(C2CCCCC2)cc1` (centres unmarked) [Trioxane 7bc, 6-[(4′-cyclohexylphenyl)vinyl]-3-phenyl-1,2,4-trioxane]: in data set [1] (i.m., 96 mg/kg), the “% Suppression on Day 4” value is on record as 41.98% and the Cured/treated is recorded as 0/5. Further, in data set [1] (oral, 96 mg/kg), the “% Suppression on Day 4” value was found to be 95.64% and the Cured/treated was 0/5.
Consider `C=C(c1ccc(-c2ccc(Br)cc2)cc1)C1COC2(OO1)C1CC3CC(C1)CC2C3` (centres unmarked) [Trioxane 9f], for which, in data set [1] (i.m., 96 mg/kg), the “% Suppression on Day 4” value is 92.4% and the Cured/treated is 2/5. Also, in data set [1] (oral, 48 mg/kg), the “% Suppression on Day 4” value came to 100% and the Cured/treated was 5/5.
Consider `C=C(c1ccc(C2CCCCCC2)cc1)C1COC2(CCC(c3ccccc3)CC2)OO1` (centres unmarked) [Trioxane 7cd], for which, in data set [1] (i.m., 96 mg/kg), the “% Suppression on Day 4” value is reported as 58.17% and the Cured/treated is recorded as 0/5. For the same molecule, in data set [1] (oral, 96 mg/kg), the “% Suppression on Day 4” value came to 100% and the Cured/treated was 2/5.
Regarding `C=C(c1ccc(C2CCCCCC2)cc1)C1COC2(CC3CCC2C3)OO1` (centres unmarked) [Trioxane 8c], the “% Suppression on Day 4” value stood at 43.55% in data set [1] (i.m., 96 mg/kg) and 100% in data set [1] (oral, 96 mg/kg). For the same molecule, the Cured/treated in data set [1] (i.m., 96 mg/kg) is on record as 0/5; in data set [1] (oral, 96 mg/kg), 3/5.
As to `CC1(C)OCC(C=Cc2ccc(-c3ccc(Br)cc3)cc2)OO1` (centres unmarked) [Trioxane 7fa, 3,3-Dimethyl-6-[(4′-bromo-[1,1′-biphenyl]-4-yl)-vinyl]-1,2,4-trioxane], in data set [1] (im, i.m., 96 mg/kg), the inhibition in vivo at 96 mg/kg came to 83.7% and the responders at 96 mg/kg is 0%. In addition, the “% Suppression on Day 4” value in data set [1] (oral, 96 mg/kg) is “died”.
As for `C(=CC1COC2(CCCCCC2)OO1)c1ccc(C2CCCC2)cc1` (centres unmarked) [Trioxane 7ad], in data set [1] (i.m., 96 mg/kg), the “% Suppression on Day 4” value came out at 48% and the Cured/treated is reported as 0/5. In data set [1] (oral, 96 mg/kg), the “% Suppression on Day 4” value came out at 88.68% and the Cured/treated is given as 0/5.
As a reminder, the melting point is the temperature of the solid-liquid transition. The molecule `Clc1ccc(-c2ccc(C=CC3COC4(CCCCC4)OO3)cc2)cc1` (centres unmarked) registered a melting point of 96 to 98 °C.
For `C(=CC1COC2(CCCC2)OO1)c1ccc(-c2ccccc2)cc1` (centres unmarked) [Trioxane 7eb, 8-[([1,1′-biphenyl]-4yl)vinyl]-6,7,10-trioxaspiro (4,5) decane], in data set [1] (oral, 96 mg/kg), the inhibition in vivo at 96 mg/kg came out at 100% and the responders at 96 mg/kg is 0%. In data set [1] (im, i.m., 96 mg/kg), the inhibition in vivo at 96 mg/kg is 100% and the responders at 96 mg/kg is 100%.
Regarding `C=C(c1ccc(C2CCCC2)cc1)C1COC2(CCC(c3ccccc3)CC2)OO1` (centres unmarked) [Trioxane 7ab], in data set [1] (i.m., 96 mg/kg), the “% Suppression on Day 4” value amounted to 77.56% and the Cured/treated is reported as 0/5. Besides, in data set [1] (oral, 96 mg/kg), the “% Suppression on Day 4” value came to 100% and the Cured/treated is 0/5.
For the molecule `CCC1(C)OCC(C=Cc2ccc(C3CCCCC3)cc2)OO1` (centres unmarked) [Trioxane 7bf], in data set [1] (i.m., 96 mg/kg), the “% Suppression on Day 4” value came out at 71.26% and the Cured/treated is listed as 0/5. For the same molecule, in data set [1] (oral, 96 mg/kg), the “% Suppression on Day 4” value came to 100% and the Cured/treated is on record as 0/5.
For “8-[(4′-cyclooctylphenyl)vinyl]-6,7,10-trioxaspiro(4,5)undecane [Trioxane 7de]”, in data set [1] (i.m., 96 mg/kg), the “% Suppression on Day 4” value is reported as 57.4% and the Cured/treated is listed as 0/5. Further, in data set [1] (oral, 96 mg/kg), the “% Suppression on Day 4” value was found to be 100% and the Cured/treated is on record as 3/5.
The molecule `C(=CC1COC(c2ccccc2)OO1)c1ccc(-c2ccccc2)cc1` (centres unmarked) came in with a melting point of 92 to 95 °C.
On the same count and under the same terms, as for `Clc1ccc(-c2ccc(C=CC3COC4(CCCC4)OO3)cc2)cc1` (centres unmarked), the figure is 102 to 104 °C.
Turning to `Brc1ccc(-c2ccc(C=CC3COC4(CCCCC4)OO3)cc2)cc1` (centres unmarked) [Trioxane 7fc, 3-[(4′-bromo-[1,1′-biphenyl]-4-yl)-vinyl]-1,2,5-trioxaspiro (5,5) undecane], the inhibition in vivo at 96 mg/kg in data set [1] (oral, 96 mg/kg) amounted to 100%; in data set [1] (im, i.m., 96 mg/kg), 46.4%. For the same molecule, the responders at 96 mg/kg in data set [1] (oral, 96 mg/kg) is 100%; in data set [1] (im, i.m., 96 mg/kg), 20%.
With `C=C(c1ccc(C2CCCCCCC2)cc1)C1COC2(CCC(C(C)(C)CC)CC2)OO1` (centres unmarked) [Trioxane 7df], the “% Suppression on Day 4” value in data set [1] (i.m., 96 mg/kg) was determined as 0%; in data set [1] (oral, 96 mg/kg) it was 100%. Also, the Cured/treated in data set [1] (i.m., 96 mg/kg) is reported as 0/5; in data set [1] (oral, 96 mg/kg) it was 3/5.
On to `C(=CC1COC2(CCCCC2)OO1)c1ccc(C2CCCC2)cc1` (centres unmarked) [Trioxane 7ac, 3-[(4′-cyclopentylphenyl)vinyl]-1,2,5-trioxaspiro(5,5)undecane], for which, in data set [1] (i.m., 96 mg/kg), the “% Suppression on Day 4” value worked out at 84.94% and the Cured/treated is on record as 0/5. In data set [1] (oral, 96 mg/kg), the “% Suppression on Day 4” value worked out at 100% and the Cured/treated was 5/5.
As for `C=C(c1ccc(C2CCCCC2)cc1)C1COC2(CC3CCC2C3)OO1` (centres unmarked) [Trioxane 8b], in data set [1] (i.m., 96 mg/kg), the “% Suppression on Day 4” value was determined as 100% and the Cured/treated is 3/5. Besides, in data set [1] (oral, 48 mg/kg), the “% Suppression on Day 4” value is 100% and the Cured/treated is 6/6.
For `C=C(c1ccc(C2CCCCC2)cc1)C1COC2(CCC(C(C)(C)CC)CC2)OO1` (centres unmarked) [Trioxane 7bi], the “% Suppression on Day 4” value in data set [1] (i.m., 96 mg/kg) is reported as 53.01%; in data set [1] (oral, 96 mg/kg), 100%. Moreover, the Cured/treated in data set [1] (i.m., 96 mg/kg) is 0/5; in data set [1] (oral, 96 mg/kg), 5/5.
In the case of `C=C(c1ccc(C2CCCCCC2)cc1)C1COC2(OO1)C1CC3CC(C1)CC2C3` (centres unmarked) [Trioxane 9c], in data set [1] (i.m., 96 mg/kg), the “% Suppression on Day 4” value amounted to 74.57% and the Cured/treated is 0/5. Further, in data set [1] (oral, 96 mg/kg), the “% Suppression on Day 4” value was found to be 100% and the Cured/treated is listed as 5/5.
